{"source": "paper PMC8468270", "about": "“In Vitro Heme Coordination of a Dye-Decolorizing Peroxidase—The Interplay of Key Amino Acids, pH, Buffer and Glycerol” (International Journal of Molecular Sciences, 2021)", "target": "T1, KpDyP (WT KpDyP) (Klebsiella pneumoniae, UniProt A0A0W8ATM9)", "T1 construct": "gene yfeX; homodimer; ferric heme; distal D143, R232, L246, F248, proximal H215", "T1 sequence (A0A0W8ATM9 1-299)": "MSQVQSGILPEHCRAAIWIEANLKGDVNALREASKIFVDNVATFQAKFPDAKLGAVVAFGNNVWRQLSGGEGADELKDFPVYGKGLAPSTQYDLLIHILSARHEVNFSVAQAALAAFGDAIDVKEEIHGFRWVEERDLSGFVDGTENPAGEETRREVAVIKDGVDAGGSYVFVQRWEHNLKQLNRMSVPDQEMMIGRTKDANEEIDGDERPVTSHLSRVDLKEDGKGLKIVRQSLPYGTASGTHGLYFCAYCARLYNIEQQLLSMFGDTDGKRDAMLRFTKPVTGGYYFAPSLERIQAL", "assay": "X-band CW EPR of frozen solution", "assay_type": "binding", "details": "glycine-KOH buffer 50 mM, pH 10.0, 10 K, no glycerol; heme iron distal ligand; seen only at low temperature, not at room temperature"}
{"smiles": "NCC(=O)O", "note": "[glycine]", "values": [{"measurement": "X-band CW EPR of frozen solution", "value": "glycine binding is also observed for WT and R232A KpDyP at low temperature"}]}
